ChEMBL document CHEMBL1201862, “PubChem BioAssay data set” (2004)
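Five compound concentrations were applied to cells in 96-well plates for 48 hours; endpoints were derived by simple linear interpolation of the resulting dose-response curve. GI50 marks 50% less growth.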 Activity calls are given as the source filed them. Cut-off read from the data, not from the text of the source: active = GI50 up to about 1.1 µM and inactive = higher.

Legend:
Test in all cases: NCI tumour cell line growth inhibition, 48 h
[1] = test system: 786-0
[2] = test system: A498
[3] = test system: A549
[4] = test system: ACHN
[5] = test system: BT-549
[6] = test system: CAKI-1
[7] = test system: CCRF-CEM
[8] = test system: COLO 205
[9] = test system: DLD-1
[10] = test system: DMS-114
[11] = test system: DMS-273
[12] = test system: DU-145
[13] = test system: EKVX
[14] = test system: HCC 2998
[15] = test system: HCT-116
[16] = test system: HCT-15
[17] = test system: HL-60
[18] = test system: HOP-62
[19] = test system: HOP-92
[20] = test system: HT-29
[21] = test system: IGROV-1
[22] = test system: K562
[23] = test system: KM-20L2
[24] = test system: KM12
[25] = test system: LOX IMVI
[26] = test system: LXFL 529
[27] = test system: M14
[28] = test system: M19-MEL
[29] = test system: MCF7
[30] = test system: MDA-MB-231
[31] = test system: MDA-MB-435
[32] = test system: MDA-N
[33] = test system: MOLT-4
[34] = test system: Malme-3M
[35] = test system: NCI-H226
[36] = test system: NCI-H23
[37] = test system: NCI-H460
[38] = test system: NCI-H522
[39] = test system: NCI/ADR-RES
[40] = test system: OVCAR-3
[41] = test system: OVCAR-4
[42] = test system: OVCAR-5
[43] = test system: OVCAR-8
[44] = test system: PC-3
[45] = test system: RPMI-8226
[46] = test system: RXF 393
[47] = test system: RXF 631
[48] = test system: SF-268
[49] = test system: SF-295
[50] = test system: SF-539
[51] = test system: SK-MEL-28
[52] = test system: SK-MEL-2
[53] = test system: SK-MEL-5
[54] = test system: SK-OV-3
[55] = test system: SN12C
[56] = test system: SNB-19
[57] = test system: SNB-75
[58] = test system: SNB-78
[59] = test system: SR
[60] = test system: SW-620
[61] = test system: TK-10
[62] = test system: U-251
[63] = test system: UACC-257
[64] = test system: UACC-62
[65] = test system: UO-31
[66] = test system: XF498

Measured: GI50

COc1ccc2nc3ccccc3c(NCCCCCCN(CCCl)CCCl)c2c1
active: [1] 0.0161 µM | [2] 0.405 µM | [3] 0.054 µM | [4] 0.0184 µM | [5] 0.323 µM | [6] 0.0353 µM | [7] 0.0107 µM | [8] 0.014 µM | [9] 0.109 µM | [10] 0.155 µM | [11] 0.0328 µM | [12] 0.0817 µM | [13] 0.895 µM | [14] 0.226 µM | [15] 0.0299 µM | [17] 0.0122 µM | [18] 0.212 µM | [19] 0.124 µM | [20] 0.0248 µM | [21] 0.148 µM | [22] 0.019 µM | [23] 0.0776 µM | [24] 0.151 µM | [25] 0.0199 µM | [26] 0.107 µM | [27] 0.0946 µM | [28] 0.132 µM | [29] 0.01 µM | [30] 0.486 µM | [31] 0.0482 µM | [32] 0.057 µM | [33] 0.0124 µM | [34] 0.537 µM | [35] 0.25 µM | [36] 0.15 µM | [37] 0.0346 µM | [38] 0.0338 µM | [39] 0.0883 µM | [40] 0.0627 µM | [41] 0.158 µM | [42] 0.45 µM | [43] 0.0627 µM | [44] 0.0514 µM | [45] 0.0122 µM | [46] 0.187 µM | [47] 0.104 µM | [48] 0.0649 µM | [49] 0.0767 µM | [50] 0.215 µM | [51] 1.06 µM | [52] 0.297 µM | [53] 0.304 µM | [54] 0.226 µM | [55] 0.0348 µM | [56] 0.328 µM | [57] 0.108 µM | [58] 0.223 µM | [59] 0.0115 µM | [60] 0.0199 µM | [61] 1.04 µM | [62] 0.0528 µM | [64] 0.0628 µM | [65] 0.123 µM | [66] 0.136 µM
inactive: [63] 1.6 µM
0.0577 µM: [16]

CN1CCCN2CCN(C)CCCN(CC1)CC2
inactive: [1] > 100 µM | [2] > 100 µM | [6] > 100 µM | [7] > 100 µM | [8] > 100 µM | [9] > 100 µM | [10] > 100 µM | [11] > 100 µM | [14] > 100 µM | [15] > 100 µM | [17] > 100 µM | [18] > 100 µM | [19] > 100 µM | [21] > 100 µM | [22] > 100 µM | [25] > 100 µM | [26] > 100 µM | [27] > 100 µM | [28] > 100 µM | [33] > 100 µM | [34] > 100 µM | [35] > 100 µM | [36] > 100 µM | [37] > 100 µM | [38] > 100 µM | [41] > 100 µM | [45] > 100 µM | [47] > 100 µM | [48] > 100 µM | [50] > 100 µM | [51] > 100 µM | [52] > 100 µM | [54] > 100 µM | [55] > 100 µM | [57] > 100 µM | [58] > 100 µM | [59] > 100 µM | [64] > 100 µM | [65] > 100 µM | [66] > 100 µM

O=C1C2=C(c3ccccc31)C(c1ccc([N+](=O)[O-])cc1)NC(S)=N2 (centres undefined)
inactive: [1] > 100 µM | [2] > 100 µM | [3] 48.5 µM | [4] 70 µM | [6] > 100 µM | [7] 38.7 µM | [8] > 100 µM | [9] 69 µM | [10] 36.8 µM | [11] 59.4 µM | [13] > 100 µM | [15] 38.5 µM | [17] 35.6 µM | [18] > 100 µM | [19] 51.1 µM | [20] > 100 µM | [21] 50 µM | [22] 49.1 µM | [23] > 100 µM | [24] 87.7 µM | [26] 41 µM | [27] 91.2 µM | [28] 78.9 µM | [33] 35.4 µM | [34] 80.7 µM | [35] 19.2 µM | [36] 38.5 µM | [37] 67.8 µM | [38] 30.5 µM | [40] 49.9 µM | [41] 42.6 µM | [42] > 100 µM | [43] > 10 µM | [45] 30.2 µM | [47] > 100 µM | [48] 42.2 µM | [49] 58.6 µM | [50] > 100 µM | [51] 59.3 µM | [52] 96.8 µM | [53] 27.4 µM | [54] > 100 µM | [55] 47.4 µM | [56] 97.3 µM | [57] 23.9 µM | [60] 81.1 µM | [61] > 100 µM | [62] > 100 µM | [63] > 100 µM | [64] 43.5 µM | [65] 31.8 µM | [66] 31.5 µM
51.9 µM: [16]
